The compounds below were run against T1, Endothelin-converting enzyme 1 (Homo sapiens, UniProt P42892) (assay: (§1) Tested for inhibitory concentration against human Endothelin-converting enzyme 1 at 10 uM).
T1 sequence (P42892 whole entry): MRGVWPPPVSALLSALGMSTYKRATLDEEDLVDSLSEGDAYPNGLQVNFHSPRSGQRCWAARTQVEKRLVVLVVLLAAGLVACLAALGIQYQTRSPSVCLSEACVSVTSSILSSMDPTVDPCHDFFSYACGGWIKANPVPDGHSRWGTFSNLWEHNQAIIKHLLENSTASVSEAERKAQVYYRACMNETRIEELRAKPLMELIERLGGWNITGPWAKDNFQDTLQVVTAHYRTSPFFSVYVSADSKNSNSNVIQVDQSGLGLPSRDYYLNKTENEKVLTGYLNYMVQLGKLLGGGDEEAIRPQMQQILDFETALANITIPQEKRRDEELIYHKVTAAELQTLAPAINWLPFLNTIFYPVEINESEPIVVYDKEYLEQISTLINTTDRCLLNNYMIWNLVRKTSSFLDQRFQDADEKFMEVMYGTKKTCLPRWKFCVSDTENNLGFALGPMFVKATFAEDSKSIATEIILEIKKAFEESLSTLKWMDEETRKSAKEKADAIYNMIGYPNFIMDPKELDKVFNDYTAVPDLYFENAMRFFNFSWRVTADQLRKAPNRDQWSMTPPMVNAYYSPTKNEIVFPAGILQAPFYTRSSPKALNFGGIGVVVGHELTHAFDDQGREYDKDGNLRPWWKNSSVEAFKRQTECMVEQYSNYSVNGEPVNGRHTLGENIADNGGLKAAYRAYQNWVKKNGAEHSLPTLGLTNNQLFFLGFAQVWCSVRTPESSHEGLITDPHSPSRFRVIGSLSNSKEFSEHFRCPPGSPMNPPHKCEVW

SMILES | IC50 [nM]
CCCc1ccc(S(=O)(=O)N2C[C@H](S)C[C@H]2c2nnc(SC)n2-c2ccccc2)cc1 | 1200
CSc1nnc([C@@H]2C[C@@H](S)CN2C(=O)Nc2ccc(F)cc2)n1-c1ccccc1 | 17700
CSc1nnc([C@@H]2C[C@@H](S)CN2S(C)(=O)=O)n1-c1ccccc1 | 15500
CSc1nnc([C@@H]2C[C@@H](S)CN2S(=O)(=O)c2ccc(C)cc2)n1-c1ccccc1 | 4400
CCCCOC(=O)N1C[C@H](S)C[C@H]1c1nnc(SC)n1-c1ccccc1 | 2700
CSc1nnc([C@@H]2C[C@@H](S)CN2S(=O)(=O)c2ccc3ccccc3c2)n1-c1ccccc1 | 500
CSc1nnc([C@@H]2C[C@@H](S)CN2S(=O)(=O)c2ccc3ccccc3c2)n1-c1c(F)c(F)cc(F)c1F | 250
CC(C)CSc1nnc([C@@H]2C[C@@H](S)CN2S(=O)(=O)c2ccc3ccccc3c2)n1-c1ccccc1 | 720
CSc1nnc([C@@H]2C[C@@H](S)CN2S(=O)(=O)c2ccc(Cl)cc2)n1-c1ccccc1 | 1200

Results, then the compound that gave them:

IC50 [nM] | SMILES
700 | O=S(=O)(c1ccc2ccccc2c1)N1C[C@H](S)C[C@H]1c1nnc(SCC2CC2)n1-c1ccccc1
8950 | CSc1nnc([C@@H]2C[C@@H](S)CN2S(=O)(=O)c2ccc(F)cc2)n1-c1ccccc1
1300 | CSc1nnc([C@@H]2C[C@@H](S)CN2S(=O)(=O)c2ccc(C(F)(F)F)cc2)n1-c1ccccc1
360 | CSc1nnc([C@@H]2C[C@@H](S)CN2S(=O)(=O)c2ccc3ccccc3c2)n1-c1ccc(C(F)(F)F)cc1
280 | CCCSc1nnc([C@@H]2C[C@@H](S)CN2S(=O)(=O)c2ccc3ccccc3c2)n1-c1ccccc1
150 | CSc1nnc([C@@H]2C[C@@H](S)CN2S(=O)(=O)c2ccc3ccccc3c2)n1Cc1ccc(F)cc1
1200 | CSc1nnc([C@@H]2C[C@@H](S)CN2S(=O)(=O)c2ccc3ccccc3c2)n1-c1ccc(F)c(Cl)c1

What follows are compounds tested against T2, Endothelin-converting enzyme 1 (Homo sapiens) (UniProt P42892) (assay: as §1).
T2 sequence (whole entry): T1 sequence (P42892 whole entry)

inhibition [%] | SMILES
28 | CSc1nnc([C@@H]2C[C@@H](S)CN2S(=O)(=O)N(C)C)n1-c1ccccc1
43 | CSc1nnc([C@@H]2C[C@@H](S)CN2S(=O)(=O)c2ccc3ccccc3c2)n1C
